In ChEMBL document CHEMBL3124887, “Synthesis and anti-inflammatory activity of aromatic glucosinolates” (2013) one finds Activity data, which are given here for eight molecules.

Structures are written as SMILES.

What all share (format): functional
For experiment [1], the system named is THP-1. The experiment can be described thus: Antiinflammatory activity in human THP1 cells assessed as inhibition of LPS-induced TNF-alpha release measured as TNF-alpha level at 10 uM after 4hrs by ELISA relative to control. Background: An ELISA detects its analyte on a solid surface through an enzyme-linked reagent.
Experiment [2] has as its system THP-1. Description: Antiinflammatory activity in human THP1 cells assessed as inhibition of LPS-induced TNF-alpha release measured as TNF-alpha level at 5 uM after 4hrs by ELISA relative to control.
The test system of experiment [3] is THP-1. The experiment can be described thus: Antiinflammatory activity in human THP1 cells assessed as inhibition of LPS-induced TNF-alpha release measured as TNF-alpha level at 15 uM after 4hrs by ELISA relative to control.
The test system of experiment [4] is THP-1. The experiment can be described thus: Antiinflammatory activity in human THP1 cells assessed as inhibition of LPS-induced TNF-alpha release measured as TNF-alpha level at 0.5 uM after 4hrs by ELISA relative to control.
Experiment [5] relates to THP-1. Description: Antiinflammatory activity in human THP1 cells assessed as inhibition of LPS-induced TNF-alpha release measured as TNF-alpha level at 0.1 uM after 4hrs by ELISA relative to control.
Experiment [6] concerns THP-1. Description: Antiinflammatory activity in human THP1 cells assessed as inhibition of LPS-induced TNF-alpha release measured as TNF-alpha level at 1 uM after 4hrs by ELISA relative to control.

In the case of `O=S(=O)([O-])O/N=C(\S[C@@H]1O[C@H](CO)[C@@H](O)[C@H](O)[C@H]1O)c1ccccc1.[K+]`, the Activity in the experiment with THP-1 [1] was 144.15 pg/mL; in the experiment with THP-1 [2] it was 166.58 pg/mL; with THP-1 [3] it was 103.57 pg/mL; in the experiment on THP-1 [4] it was 194.44 pg/mL; with THP-1 [5], 231.15 pg/mL.

`O=S(=O)([O-])O/N=C(/Cc1ccccc1)S[C@@H]1O[C@H](CO)[C@@H](O)[C@H](O)[C@H]1O.[K+]`: the Activity in the experiment with THP-1 [1] was found to be 206.65 pg/mL; with THP-1 [3], 201.87 pg/mL; with THP-1 [6], 248.4 pg/mL; in the experiment with THP-1 [5], 275.48 pg/mL.

On to `O=S(=O)([O-])O/N=C(/CCc1ccccc1)S[C@@H]1O[C@H](CO)[C@@H](O)[C@H](O)[C@H]1O.[K+]`, for which the Activity in the experiment on THP-1 [1] is 96.86 pg/mL; in the experiment with THP-1 [2] it was 115.25 pg/mL; in the experiment on THP-1 [3], 74.76 pg/mL; in the experiment on THP-1 [6] it was 138.43 pg/mL.

For `O=S(=O)([O-])O/N=C(/C=C/c1ccccc1)S[C@@H]1O[C@H](CO)[C@@H](O)[C@H](O)[C@H]1O.[K+]`, the Activity was found to be 122.91 pg/mL with THP-1 [1], 79.23 pg/mL in the experiment with THP-1 [3] and 149.06 pg/mL with THP-1 [6].

For the molecule `COc1ccc(/C(=N/OS(=O)(=O)[O-])S[C@@H]2O[C@H](CO)[C@@H](O)[C@H](O)[C@H]2O)cc1OC.[K+]`, the Activity in the experiment on THP-1 [1] amounted to 93.1 pg/mL; in the experiment with THP-1 [2], 128.21 pg/mL; in the experiment with THP-1 [3], 69.2 pg/mL; in the experiment on THP-1 [4] it was 161.76 pg/mL; with THP-1 [6], 144.57 pg/mL.

For `O=S(=O)([O-])O/N=C(\S[C@@H]1O[C@H](CO)[C@@H](O)[C@H](O)[C@H]1O)c1cccc(Cl)c1Cl.[K+]`, the Activity was 157.09 pg/mL in the experiment with THP-1 [1], 162 pg/mL with THP-1 [2] and 114.17 pg/mL with THP-1 [3].

Regarding `O=S(=O)([O-])O/N=C(\S[C@@H]1O[C@H](CO)[C@@H](O)[C@H](O)[C@H]1O)c1ccc(Br)cc1.[K+]`, the Activity with THP-1 [1] turned out to be 122.04 pg/mL; with THP-1 [2], 173.17 pg/mL; with THP-1 [3] it was 111.1 pg/mL; with THP-1 [5], 165.27 pg/mL.

As to `Oc1cc(O)c2c(c1)OC(c1ccc(O)c(O)c1)C(O)C2` (stereo unspecified) [CATECHIN], the Activity in the experiment with THP-1 [2] was found to be 282.65 pg/mL; with THP-1 [3], 255.94 pg/mL; in the experiment on THP-1 [4], 303.98 pg/mL.
